Each block holds one substance with its values, some of them ahead of it. No end group written: not given here.
Experiments:
Panc-1 cells [1] = assay: Confocal fluorescence imaging of FITC labeled peptides in cells; type: cell-based; conditions: confocal microscope, 10 μM FITC labeled peptides, Panc-1 cells
Description: To examine whether PRTC could permeate into pancreatic cancer cells, we synthesized fluorescein isothiocyanate (FITC) labeled PRTC, PRTC-m, PRTC-v, PRTC-r (PRTC without RRRRK) as well as TAT (a widely used cell penetrating peptide, as a positive control).
Figure 3 Identification of the permeability of PRTC in Panc-1 cells. (A) Entry of FITC- labeled peptides into Panc-1 cells tested by flow cytometry. FITC-TAT is the positive control. Measurements were performed in triplicate. (B) Quantification of cellular uptake of Panc-1 cells treated with different concentrations of FITC-PRTC. (C) Confocal microscope images of Panc-1 cells treated with 10 μM FITC labeled peptides. Scale bars, 10 μm. (D) Confocal microscope images of Panc-1 cells treated with different dosages of FITC-PRTC. Scale bars, 10 μm.

Myc-CREPT and Myc-CCT = assay: Exogenous IP experiment in HEK293T cells; type: binding; conditions: GST-tagged CREPT ligand
Description: (§1) For exogenous immunoprecipitation assays, HEK293T cells were plated in 60 mm dishes and then transfected with the indicated plasmids. After 24 h, cells were harvested using RIPA buffer (50 mM Tris-HCl pH 8.0, 2 mM EDTA pH 8.0, 150 mM NaCl, 1% NP-40, 0.5% sodium deoxycholate, 0.1% SDS) with mixed protease inhibitors. Cell lysates were incubated with 2 μg of the indicated antibodies and 30 μL of protein A/G-Sepharose beads at 4 °C overnight. Beads were eluted five times with lysis buffer (50 mM Tris-HCl pH 7.6, 1 mM EDTA pH 8.0, 165 mM NaCl, 0.5% NP-40), and thereafter, a western blot assay was performed to analyze the association by using the indicated antibodies. Western blot was performed as previously reported. Anti-β-actin and anti-Flag antibodies were purchased from Sigma. Anti-Myc antibody was purchased from Santa Cruz Biotechnology. Antibody against CREPT was produced in the laboratory.

Flag-CREPT = biological target: T1, Flag-CREPT (Homo sapiens, UniProt Q9NQG5); assay: GST pull-down; type: binding; conditions: GST-tagged proteins purified from mammalian (HEK293T) cells
T1 construct: expressed in transfected cells; host or cells: HEK293T
T1 sequence (Q9NQG5 1-326): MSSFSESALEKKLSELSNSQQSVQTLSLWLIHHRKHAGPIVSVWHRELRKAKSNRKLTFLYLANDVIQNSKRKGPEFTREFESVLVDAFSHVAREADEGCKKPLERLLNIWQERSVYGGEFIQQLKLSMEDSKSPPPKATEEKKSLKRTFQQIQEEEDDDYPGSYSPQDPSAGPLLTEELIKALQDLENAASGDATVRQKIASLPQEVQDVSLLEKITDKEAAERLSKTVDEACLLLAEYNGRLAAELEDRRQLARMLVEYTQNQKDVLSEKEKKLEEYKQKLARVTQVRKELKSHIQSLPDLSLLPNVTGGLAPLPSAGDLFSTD
Description: HEK293T cells were plated in 100 mm dishes and then transfected with the indicated plasmids. After 24 h, cells were harvested using RIPA buffer with mixed protease inhibitors. Cell lysates were incubated with 30 μL of GST-tagged Sepharose beads and 10 μg of purified proteins from either E. coli or HEK293T cells at 4 °C overnight. Beads were eluted five times with lysis buffer. Western blot was performed using an antibody against GST (Cell Signaling Technology) to analyze the association.

[2] = biological target: T2, purified GST-CREPT protein (Homo sapiens, UniProt Q9NQG5); assay: Microscale thermophoresis (MST); type: binding; conditions: FITC-labeled peptide 100 nM, gradient dilutions of purified GST-CREPT
T2 construct: made in house
T2 sequence (Q9NQG5 1-326): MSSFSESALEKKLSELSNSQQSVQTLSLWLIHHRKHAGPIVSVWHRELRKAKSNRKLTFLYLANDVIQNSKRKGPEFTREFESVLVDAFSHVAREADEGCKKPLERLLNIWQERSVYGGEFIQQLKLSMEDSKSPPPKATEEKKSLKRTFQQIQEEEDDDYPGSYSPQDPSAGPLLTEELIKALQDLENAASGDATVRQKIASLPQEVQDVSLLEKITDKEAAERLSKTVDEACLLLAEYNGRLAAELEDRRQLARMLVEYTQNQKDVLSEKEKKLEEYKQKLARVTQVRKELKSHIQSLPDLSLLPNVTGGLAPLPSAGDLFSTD
Description: FITC-labeled PRTC and PRTC-m were regarded as ligands. After a pretest, 100 nM of both PRTC and PRTC-m generated the most appropriate value of fluorescence. Gradient dilutions of purified CREPT proteins were regarded as the target. The Kd value was measured by Microscale Thermophoresis NT.115 and was analyzed by MO.AffinityAnalysis (Nano Temper, German).

CREPT protein = biological target: T3, CREPT protein (Homo sapiens, UniProt Q9NQG5); assay: Thermal shift assay (TSA); type: binding; conditions: GST-tagged CREPT 5.33 μM, SYPRO Orange, 25 to 70 °C at 1 °C/min
T3 construct: made in house
T3 sequence (Q9NQG5 1-326): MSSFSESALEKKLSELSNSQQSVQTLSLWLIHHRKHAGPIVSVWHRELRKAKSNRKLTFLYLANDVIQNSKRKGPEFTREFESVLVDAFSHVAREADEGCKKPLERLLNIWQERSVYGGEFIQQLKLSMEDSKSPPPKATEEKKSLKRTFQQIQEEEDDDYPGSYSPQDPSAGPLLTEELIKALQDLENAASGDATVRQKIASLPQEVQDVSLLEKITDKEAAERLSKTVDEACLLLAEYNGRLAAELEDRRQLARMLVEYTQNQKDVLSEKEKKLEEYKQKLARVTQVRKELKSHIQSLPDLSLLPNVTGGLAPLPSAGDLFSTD
Description: Purified CREPT proteins were appropriately diluted in a buffer containing 50 mM Tris-HCl, pH 8.0, 150 mM NaCl. The final concentration of CREPT protein was 5.33 μM. SYPRO Orange dye was diluted into 10 μM. The PCR plates were sealed, shaken, and centrifuged after proteins and peptides were added. Thermal scanning (25 to 70 °C at 1 °C/min) was performed using a real-time PCR instrument (Bio-Rad). Melting curves were generated by Prism 7.0 based on the raw data.

[3] = Circular dichroism (CD) spectroscopy; type: physicochemical; conditions: 0.1 mg/mL in deionized water, room temperature
Description: All peptides were dissolved in the deionized water at a final concentration of 0.1 mg/mL. The CD spectra were measured by using a 1 nm bandwidth with a 1 nm step resolution from 190 to 260 nm at room temperature (Jasco spectropolarimeter, Japan). Final spectra were obtained from the average of three parallel scans after subtracting a spectrum of deionized water recorded under the same conditions. Each sample was scanned thrice and the averaged spectrum was smoothed. The helicity were calculated by CDNN 2.1 [59], [60].

[4] = biological target: T4, endogenous CREPT protein in Panc-1 cells (Homo sapiens, UniProt Q9NQG5); assay: Western blot of endogenous CREPT (degradation); type: cell-based; conditions: 10 μM or 20 μM peptide
T4 construct: endogenous protein level of CREPT in Panc-1, AsPc-1 and MIA-PaCa-2 cells; endogenous in cells; host or cells: Panc-1, AsPc-1, MIA PaCa-2
T4 sequence (Q9NQG5 1-326): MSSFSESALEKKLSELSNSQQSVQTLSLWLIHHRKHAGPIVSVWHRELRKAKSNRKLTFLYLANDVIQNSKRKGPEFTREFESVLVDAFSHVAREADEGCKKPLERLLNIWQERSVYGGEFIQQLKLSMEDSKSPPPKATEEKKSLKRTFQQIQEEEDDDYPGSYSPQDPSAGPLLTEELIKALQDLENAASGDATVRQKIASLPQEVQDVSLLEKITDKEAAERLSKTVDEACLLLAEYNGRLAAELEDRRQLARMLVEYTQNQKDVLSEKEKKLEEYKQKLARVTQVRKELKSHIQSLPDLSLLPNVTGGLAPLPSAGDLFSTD
Description: as §1
To address whether PRTC could induce CREPT degradation, we examined the endogenous protein level of CREPT in Panc-1, AsPc-1 and MIA-PaCa-2 cells in the presence of different dosages of PRTC. […] Consistently, treatment with PRTC led to decreases in CREPT protein at different times (Figure 5B, S3A). […] To further visualize the degradation process, we stained the endogenous CREPT protein with an antibody against CREPT in the cells treated with FITC-labeled PRTC.
Figure 5 PRTC induces the ubiquitination and proteasome- dependent degradation of the endogenous CREPT protein. (A) Immunoblot of CREPT following 24 h incubation with different dosages of PRTC or PRTC-m in Panc-1 cells. (B) Immunoblot of CREPT exposed to 10 μM PRTC or PRTC-m for different times in Panc-1 cells. (C) Western blot analysis of CREPT following 24 h incubation with 10 μM PTRC in Panc-1 cells. MG132 is an inhibitor of proteasome activity. (D) Immunofluorescence visualization of Panc-1 cells after treatment with PRTC for 24 h. Cells were stained with anti-CREPT antibody. Scale bars, 20 μm.

[5] = biological target: T5, ubiquitinated CREPT in Panc-1 cells (Homo sapiens, UniProt Q9NQG5); assay: Endogenous IP of CREPT with ubiquitin (Co-IP); type: cell-based; conditions: 10 μM peptide for 24 h, IP: CREPT, IB: anti-ubiquitin
T5 construct: endogenous protein level of CREPT in Panc-1, AsPc-1 and MIA-PaCa-2 cells; endogenous in cells; host or cells: Panc-1, AsPc-1, MIA PaCa-2
T5 sequence (Q9NQG5 1-326): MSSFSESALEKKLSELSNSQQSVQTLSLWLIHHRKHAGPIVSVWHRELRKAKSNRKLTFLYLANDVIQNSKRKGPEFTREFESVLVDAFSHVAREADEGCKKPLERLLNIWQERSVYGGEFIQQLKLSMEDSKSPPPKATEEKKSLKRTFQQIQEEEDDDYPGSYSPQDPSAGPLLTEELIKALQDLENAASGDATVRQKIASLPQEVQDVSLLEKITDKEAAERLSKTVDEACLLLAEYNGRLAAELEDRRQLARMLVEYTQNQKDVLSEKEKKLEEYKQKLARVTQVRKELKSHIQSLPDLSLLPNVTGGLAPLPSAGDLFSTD
Description: as §1
In addition, a Co-IP experiment was performed in Panc-1 cells treated with 10 μM PRTC, PRTC-m or PRTC-v for 24 h. […] In the absence of MG132, the level of ubiquitinated CREPT was further increased by PRTC (Figure 6C, compare lane 1 and lane 2).
Figure 6 The degradation of CREPT by PRTC is dependent on its VHL ligand. (A) Immunoblot of CREPT following 24 h incubation with different dosages of PRTC or PRTC-v in Panc-1 cells. (B) Immunoblot of CREPT exposed to 10 μM PRTC or PRTC-v for different time points in Panc-1 cells. (C) Endogenous IP experiment of CREPT with ubiquitin treated with 10 μM PTRC, PTRC-m or PTRC-v in Panc-1 cells. IP: CREPT, IB: Anti-ubiquitin.

Panc-1 cells [6] = assay: Cell viability assay (CCK-8); type: cell-based; conditions: 10 μM, CCK-8, OD450, three individual experiments
Description: Cells were seeded into 96-well plates (1000 cells per well) and cultured for the indicated times. Cell viability was evaluated using a CCK-8 kit (Solarbio, Beijing, China). The value of OD450 was calculated by spectrophotometer and presented as the mean ± standard deviation (SD) from three individual experiments.

Panc-1 cells [7] = assay: Wound healing; type: cell-based; conditions: 10 μM for 24 h, FBS-free DMEM
Description: Cells were seeded in 6-well plates. Monolayer cells were scratched after culturing to obtain at least 95% confluence. Cells were washed with PBS and maintained in FBS-free DMEM and then treated with 10 μM PRTC and PRTC-m for 24 h. Migration distance was observed by microscopy and was measured by ImageJ from three individual experiments.

pull down of Flag-CREPT in vitro (Flag-CREPT): able to pull down
Substance: GST-CL: GST protein tagged with CREPT ligand (CL) (KDVLSEKEKKLEEYKQKLARV; also: GST tag, end not given here)
binding in exogenous IP (Myc-CREPT and Myc-CCT): strongly binds

association with CREPT (MST) [2]: failed to associate
effect on thermal stability of CREPT (CREPT protein): failed to alter
secondary structure by CD spectrum [3]: disordered structure
Helicity ([3]; 190 to 260 nm, average of three scans, calculated by CDNN 2.1): 7.9%
CREPT protein level at different times [4]: no effect
ubiquitinated CREPT proteins [5]: unable to mediate the accumulation
Substance: IYP (OH) AL-AHX-KDVPSEKEKKPEEYKQKPARV-RRRRK [PRTC-m, three leucine residues on PRTC were replaced with proline residues]
cell proliferation (Panc-1 cells [6]): failed
cell movement (wound healing) (Panc-1 cells [7]): not

Continued, substance first:

Substance: FITC-AHX-IYP (OH) AL-AHX-KDVPSEKEKKPEEYKQKPARV-RRRRK [FITC-PRTC-m, FITC labeled PRTC-m]
localization of FITC labeled peptides in the cells (Panc-1 cells [1]): strong localization

Substance: FITC-AHX-KDVLSEKEKKLEEYKQKLARV-RRRRK [FITC-PRTC-v, FITC labeled PRTC-v]
localization of FITC labeled peptides in the cells (Panc-1 cells [1]): strong localization

Substance: GST-CL-m: GST protein tagged with CL-m (KDVPSEKEKKPEEYKQKPARV; also: GST tag, end not given here)
binding in exogenous IP (Myc-CREPT and Myc-CCT): failed to bind
pull down of Flag-CREPT in vitro (Flag-CREPT): lost the ability to associate
